pIC50: −log10 of the molar value.
Key:
[1] = tested on: Human immunodeficiency virus 1; test: Antiviral activity against HIV1 3B assessed as inhibition of viral attachment to human MAGI cells; type: functional, organism-based; details: Human immunodeficiency virus 1, 3B
[2] = Cytotoxicity against human Chem1 cells; type: cell-based; details: read-out: TC50 (the source's name)
[3] = Cytotoxicity against human MAGI cells; type: cell-based; details: read-out: TC50 (the source's name)
[4] = target: T1, C-X-C chemokine receptor type 4 (Homo sapiens, UniProt P61073); test: Antagonist activity at CXCR4 in human Chem-1 cells assessed as inhibition of CXCL12-induced calcium flux; type: functional, cell-based
CYP2C19 = CYP2C19 (Homo sapiens, UniProt P33261); test: Inhibition of human CYP2C19 at 1 uM; type: ADME
CYP2D6 = CYP2D6 (Homo sapiens, UniProt P10635); test: Inhibition of human CYP2D6 at 1 uM
hERG (KCNH2) [5] = target: T2, hERG (KCNH2) (Homo sapiens, UniProt Q12809); test: Displacement of [3H]-dofetilide from human ERG in HEK293 cells at 10 uM; type: cell-based; details: HEK293 cells that express hERG, probe [3H]-dofetilide
CYP3A4 = CYP3A4 (Homo sapiens, UniProt P08684); test: Inhibition of human CYP3A4 at 1 uM
hERG (KCNH2) [6] = target: T2, hERG (KCNH2); test: Displacement of [3H]-dofetilide from human ERG in HEK293 cells at 1 uM; type: cell-based; details: HEK293 cells that express hERG, probe [3H]-dofetilide
[7] = tested on: Human immunodeficiency virus 1; test: Antiviral activity against HIV1 3B infected in PBMC; type: functional, organism-based; details: Human immunodeficiency virus 1, 3B
[8] = Selectivity ratio of IC50 for CXCR4 in human Chem-1 cells to IC50 for HIV1 3B assessed as inhibition of viral attachment to human MAGI cells; type: cell-based
[9] = target: T1, C-X-C chemokine receptor type 4
Description: Displacement of [125I]-SDF-1 from CXCR4 (unknown origin)

T2 sequence (Q12809 whole entry): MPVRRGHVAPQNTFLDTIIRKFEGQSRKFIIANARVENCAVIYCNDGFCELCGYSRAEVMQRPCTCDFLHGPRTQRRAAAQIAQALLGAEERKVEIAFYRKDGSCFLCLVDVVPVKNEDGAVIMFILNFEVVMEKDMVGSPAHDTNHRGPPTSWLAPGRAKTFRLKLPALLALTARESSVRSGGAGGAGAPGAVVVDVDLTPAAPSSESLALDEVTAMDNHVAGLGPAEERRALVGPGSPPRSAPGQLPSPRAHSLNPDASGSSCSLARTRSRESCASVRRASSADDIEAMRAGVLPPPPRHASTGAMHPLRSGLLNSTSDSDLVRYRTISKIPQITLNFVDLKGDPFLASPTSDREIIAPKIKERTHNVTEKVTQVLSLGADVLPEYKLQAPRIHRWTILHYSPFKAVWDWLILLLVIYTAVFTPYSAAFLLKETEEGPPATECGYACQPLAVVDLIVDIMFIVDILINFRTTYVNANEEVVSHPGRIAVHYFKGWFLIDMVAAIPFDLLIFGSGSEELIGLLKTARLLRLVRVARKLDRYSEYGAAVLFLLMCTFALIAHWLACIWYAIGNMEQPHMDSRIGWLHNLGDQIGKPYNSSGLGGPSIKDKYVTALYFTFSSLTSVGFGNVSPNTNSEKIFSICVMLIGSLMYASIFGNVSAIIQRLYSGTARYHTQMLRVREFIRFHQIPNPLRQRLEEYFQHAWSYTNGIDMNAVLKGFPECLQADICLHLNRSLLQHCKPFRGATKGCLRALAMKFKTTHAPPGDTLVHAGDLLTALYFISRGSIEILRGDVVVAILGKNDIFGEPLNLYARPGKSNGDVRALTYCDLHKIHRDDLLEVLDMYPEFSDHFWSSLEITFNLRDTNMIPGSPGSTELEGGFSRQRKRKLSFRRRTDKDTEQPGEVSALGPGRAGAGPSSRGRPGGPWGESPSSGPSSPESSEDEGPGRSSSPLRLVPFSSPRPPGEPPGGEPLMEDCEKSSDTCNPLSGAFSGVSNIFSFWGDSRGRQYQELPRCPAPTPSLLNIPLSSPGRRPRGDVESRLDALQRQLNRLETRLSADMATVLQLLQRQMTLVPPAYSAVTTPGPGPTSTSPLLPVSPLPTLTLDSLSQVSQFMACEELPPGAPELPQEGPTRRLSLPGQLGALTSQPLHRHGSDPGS
Sequence of CYP2C19 (P33261 whole entry): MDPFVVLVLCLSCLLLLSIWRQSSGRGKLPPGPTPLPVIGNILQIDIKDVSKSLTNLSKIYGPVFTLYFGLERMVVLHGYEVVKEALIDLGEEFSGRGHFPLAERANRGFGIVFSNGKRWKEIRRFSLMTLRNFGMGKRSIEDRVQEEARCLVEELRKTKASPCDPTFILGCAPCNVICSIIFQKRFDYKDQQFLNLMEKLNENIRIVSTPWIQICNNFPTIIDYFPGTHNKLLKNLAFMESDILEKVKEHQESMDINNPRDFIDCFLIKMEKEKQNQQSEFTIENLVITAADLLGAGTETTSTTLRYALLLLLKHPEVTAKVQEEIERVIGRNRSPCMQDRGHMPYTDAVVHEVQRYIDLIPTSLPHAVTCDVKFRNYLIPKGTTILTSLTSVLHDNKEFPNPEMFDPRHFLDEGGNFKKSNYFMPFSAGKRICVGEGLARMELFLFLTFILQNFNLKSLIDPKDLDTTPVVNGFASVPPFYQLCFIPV
T1 sequence (P61073 whole entry): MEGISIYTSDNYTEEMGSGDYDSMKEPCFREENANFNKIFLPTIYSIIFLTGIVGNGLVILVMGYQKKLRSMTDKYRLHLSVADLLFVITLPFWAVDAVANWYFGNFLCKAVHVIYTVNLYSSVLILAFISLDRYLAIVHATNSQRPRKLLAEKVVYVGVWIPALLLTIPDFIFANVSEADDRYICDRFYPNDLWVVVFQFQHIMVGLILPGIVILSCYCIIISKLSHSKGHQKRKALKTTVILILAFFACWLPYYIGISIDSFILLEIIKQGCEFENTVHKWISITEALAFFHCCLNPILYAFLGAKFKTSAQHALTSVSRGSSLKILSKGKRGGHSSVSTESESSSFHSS
Sequence of CYP2D6 (P10635 whole entry): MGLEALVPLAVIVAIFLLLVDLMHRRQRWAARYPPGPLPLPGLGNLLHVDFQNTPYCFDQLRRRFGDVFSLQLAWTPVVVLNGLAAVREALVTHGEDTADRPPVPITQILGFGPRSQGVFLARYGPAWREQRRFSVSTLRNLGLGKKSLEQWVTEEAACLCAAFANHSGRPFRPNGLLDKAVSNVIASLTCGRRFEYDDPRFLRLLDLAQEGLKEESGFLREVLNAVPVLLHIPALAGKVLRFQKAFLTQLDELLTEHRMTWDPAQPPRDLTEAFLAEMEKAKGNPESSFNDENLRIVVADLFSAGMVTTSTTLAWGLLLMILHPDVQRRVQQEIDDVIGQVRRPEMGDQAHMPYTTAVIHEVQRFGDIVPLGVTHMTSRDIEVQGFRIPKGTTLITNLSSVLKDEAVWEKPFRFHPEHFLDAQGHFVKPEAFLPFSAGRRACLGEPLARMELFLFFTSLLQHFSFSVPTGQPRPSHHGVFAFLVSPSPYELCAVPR
Sequence of CYP3A4 (P08684 whole entry): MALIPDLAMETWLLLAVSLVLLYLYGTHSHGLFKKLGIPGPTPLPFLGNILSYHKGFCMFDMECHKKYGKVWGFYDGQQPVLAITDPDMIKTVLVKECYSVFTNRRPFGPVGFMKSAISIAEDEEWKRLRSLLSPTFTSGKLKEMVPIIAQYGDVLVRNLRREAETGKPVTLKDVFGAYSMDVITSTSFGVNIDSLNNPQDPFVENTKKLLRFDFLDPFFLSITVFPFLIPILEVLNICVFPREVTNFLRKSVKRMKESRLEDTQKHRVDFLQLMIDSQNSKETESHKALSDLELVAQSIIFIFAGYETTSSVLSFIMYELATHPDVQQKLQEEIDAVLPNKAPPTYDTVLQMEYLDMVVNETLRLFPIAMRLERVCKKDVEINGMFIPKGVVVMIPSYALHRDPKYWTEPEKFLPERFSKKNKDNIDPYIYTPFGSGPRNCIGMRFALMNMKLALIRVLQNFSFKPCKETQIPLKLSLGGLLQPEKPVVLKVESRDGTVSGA

Compound	pIC50 [1]	pIC50 [4]	CC50 [2]	CC50 [3]	other results
NCCCCN(C[C@H]1CN(S(=O)(=O)c2cc3ccccc3s2)CCN1)[C@H]1CCCc2cccnc21	5.46	7.41	> 10000 nM	> 10000 nM	–
NCCCCN(C[C@H]1CN(S(=O)(=O)c2ccc3ccccc3c2)CCN1)[C@H]1CCCc2cccnc21	5.34	7.15	> 10000 nM	> 10000 nM	–
NCCCCN(Cc1nc2ccccc2[nH]1)[C@H]1CCCc2cccnc21 [MAVORIXAFOR]	–	–	–	–	inhibition at 1 µM (CYP2C19): 20%; inhibition at 1 µM (CYP2D6): 100%
NCCCCN(C[C@H]1CN(S(=O)(=O)c2ccccc2)CCN1)[C@H]1CCCc2cccnc21	–	8.70	> 10000 nM	> 10000 nM	–
NCCCCN(C[C@@H]1CN(S(=O)(=O)c2ccccc2)CCN1)[C@H]1CCCc2cccnc21	–	7.64	> 10000 nM	> 10000 nM	inhibition at 10 µM (hERG (KCNH2) [5]): 79%; inhibition at 1 µM (CYP3A4): 0%; inhibition at 1 µM (CYP2C19): 2%; inhibition at 1 µM (CYP2D6): 41%; inhibition at 1 µM (hERG (KCNH2) [6]): 37%
NCCCCN(C[C@H]1CN(Cc2ccccc2)CCN1)[C@H]1CCCc2cccnc21	–	6.64	> 10000 nM	> 10000 nM	–
NCCCCN(C[C@@H]1CNCCN1C(=O)c1ccccc1)[C@H]1CCCc2cccnc21	< 4.00	–	> 10000 nM	> 10000 nM	–
NCCCCN(C[C@H]1CNCCN1C(=O)c1ccccc1)[C@H]1CCCc2cccnc21	< 4.00	–	> 10000 nM	> 10000 nM	–
NCCCCN(C[C@@H]1CN(Cc2ccccc2)CCN1)[C@H]1CCCc2cccnc21	–	6.72	> 10000 nM	> 10000 nM	pIC50 [9]: 5.53

Now from value to compound, other results behind:

pIC50 [1]	pIC50 [4]	Compound	CC50 [2]	CC50 [3]	other results
6.51	6.59	NCCCCN(C[C@H]1CNCCN1)[C@H]1CCCc2cccnc21	> 10000 nM	> 10000 nM	–
6.82	7.46	NCCCCN(C[C@@H]1CN(C(=O)c2ccco2)CCN1)[C@H]1CCCc2cccnc21	> 10000 nM	> 10000 nM	–
5.96	5.92	NCCCCN(C[C@@H]1CNCCN1)[C@H]1CCCc2cccnc21	> 10000 nM	> 10000 nM	–
7.30	8.70	NCCCCN(C[C@H]1CN(S(=O)(=O)c2ccc(Cl)cc2)CCN1)[C@H]1CCCc2cccnc21	> 10000 nM	> 10000 nM	–
6.46	–	NCCCCN(C[C@H]1CN(C(=O)Nc2ccccc2)CCN1)[C@H]1CCCc2cccnc21	> 10000 nM	> 10000 nM	–
6.68	–	NCCCCN(CC1CN(C(=O)c2ccco2)CCN1)[C@H]1CCCc2cccnc21 (mixture of isomers)	> 10000 nM	> 10000 nM	–
7.22	8.70	NCCCCN(C[C@H]1CN(C(=O)c2ccccc2)CCN1)[C@H]1CCCc2cccnc21	> 10000 nM	> 10000 nM	–
6.14	6.89	NCCCCN(CC1CN(c2ccccc2)CCN1)[C@H]1CCCc2cccnc21 (mixture of isomers)	> 10000 nM	> 10000 nM	–
5.87	–	NCCCCN(C[C@@H]1CN(C(=O)OCc2ccccc2)CCN1)[C@H]1CCCc2cccnc21	> 10000 nM	> 10000 nM	–
6.47	7.74	NCCCCN(C[C@H]1CN(C(=O)OCc2ccccc2)CCN1)[C@H]1CCCc2cccnc21	> 10000 nM	> 10000 nM	–
7.70	8.22	NCCCCN(C[C@@H]1CN(C(=O)c2ccccc2)CCN1)[C@H]1CCCc2cccnc21	> 10000 nM	> 10000 nM	inhibition at 10 µM (hERG (KCNH2) [5]): 55%; pIC50 [7]: 7.06; inhibition at 1 µM (CYP3A4): 0%; inhibition at 1 µM (CYP2C19): 2%; Ratio IC50 [8]: 0.3; inhibition at 1 µM (CYP2D6): 19%; inhibition at 1 µM (hERG (KCNH2) [6]): 18%

— ChEMBL document CHEMBL3627700, “Discovery of novel N-aryl piperazine CXCR4 antagonists” (Bioorg Med Chem Lett, 2015)
